Experimental data taken from PubChem BioAssay (NCI).
Several values for one entry are separate records, joined by “and”; a condition that tells them apart may be missing. Identical values can stand only once.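 Test compounds were applied to cells in 96-well plates for 48 hours at 5 doses. GI50 = concentration required for 50% inhibition of growth. Definition used: TGI = concentration required for complete inhibition of growth.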

Tests used:
Experiment in all cases: growth of human tumour cells (NCI), 48 h
SF-295 CNS = system: SF-295 CNS
OVCAR-4 ovarian = system: OVCAR-4 ovarian
HOP-92 NSCLC = system: HOP-92 NSCLC
T-47D breast = system: T-47D breast
MCF7 breast = system: MCF7 breast
SK-MEL-5 melanoma = system: SK-MEL-5 melanoma
UACC-257 melanoma = system: UACC-257 melanoma
HCT-116 colon = system: HCT-116 colon
MDA-MB-231 breast = system: MDA-MB-231 breast
HT29 colon = system: HT29 colon

Structure (SMILES) | TGI (SF-295 CNS) | TGI (OVCAR-4 ovarian) | TGI (HOP-92 NSCLC) | TGI (T-47D breast) [µM] | TGI (MCF7 breast) | TGI (SK-MEL-5 melanoma) | TGI (UACC-257 melanoma) | TGI (HCT-116 colon) [µM] | TGI (MDA-MB-231 breast) | TGI (HT29 colon) | GI50 (SF-295 CNS) [µM] | GI50 (OVCAR-4 ovarian) [µM] | GI50 (HOP-92 NSCLC) [µM] | GI50 (T-47D breast) [µM] | GI50 (MCF7 breast) [µM] | GI50 (SK-MEL-5 melanoma) [µM] | GI50 (UACC-257 melanoma) [µM] | GI50 (HCT-116 colon) [µM] | GI50 (MDA-MB-231 breast) [µM] | GI50 (HT29 colon) [µM]
COc1cc(N=Nc2cccc(S(N)(=O)=O)c2)c2ccccc2c1N | 26.6 µM | 27.8 µM | > 58 µM | > 61.2 | 20.5 µM | 3.3 µM | 3.37 µM | 29.2 | 26.5 µM | 31 µM | – | – | – | – | – | – | – | – | – | –
Cc1[nH]n(-c2ccccc2)c(=O)c1C(=O)c1ccccc1 | > 25 µM | > 25 µM | > 25 µM | > 25 | > 25 µM | > 25 µM | > 25 µM | > 25 | > 25 µM | > 25 µM | > 25 | > 25 | > 10.6 | > 25 | > 25 | > 25 | > 25 | > 25 | > 25 | > 25
N#Cc1ncc(N2C(=O)C3(CCC3)N(c3ccc(OC4CCNCC4)nc3)C2=S)cc1C(F)(F)F | 31.5 µM | 44.4 µM | 10.5 µM | 49.6 | 26.4 µM | 32 µM | 25.8 µM | 24.4 | 33.6 µM | 29.9 µM | 16.1 | 18.2 | 1.11 | 12.2 | 11.5 | 17.2 | 12.1 | 11.7 | 16.4 | 8.92
COc1ccc(/C=C/c2cnc3ccccc3n2)cc1OC | > 100 µM | > 100 µM | > 100 µM | > 100 | > 100 µM | > 100 µM | > 100 µM | > 100 | > 100 µM | > 100 µM | – | – | – | – | – | – | – | – | – | –
C[C@H]1CCC/C=C/[C@@H]2C[C@H](O)C[C@H]2[C@H](O)[C@@H](SC2OC(CO)C(O)C(O)C2O)CC(=O)O1 (some centres not stated) | > 100 µM | > 100 µM | > 100 µM | > 100 | > 100 µM | 30 µM | > 100 µM | > 100 | 91 µM | 58.8 µM | > 100 | 54.1 | > 100 | > 100 | 35.1 | 16.2 | 44.5 | > 100 | 26.9 | 23
C[C@H]1CC2=CC(=O)CC[C@]2(C)[C@H]2CC[C@@]3(C)[C@@H](CC[C@]3(C)O)[C@H]12 | 62.5 µM | > 100 µM | 44.3 µM | 70.3 | > 76.7 µM | 33.3 µM | > 94.1 µM | > 95.2 | > 100 µM | > 100 µM | 21.4 | 38 | 8.66 | 22.5 | 24.9 | 14.8 | 35.4 | 31.2 | 35 | 44.7
CN(C)c1ccc(N=C(C#N)c2nc(N)nc(N3CCN(c4ccccc4)CC3)n2)cc1 | > 43.7 µM | > 34.1 µM | > 50 µM | > 50 | 37.4 µM | > 47.5 µM | > 44.2 µM | > 50 | 31.3 µM | > 50 µM | 14.7 | 18.9 | 49.8 | > 50 | 21 | 24.5 | 28.1 | 17.4 | 10.7 | 21.2
O=[N+]([O-])c1ccc(NC(=S)N/N=C(\c2ccccc2)c2ccccn2)cc1 | 3.5 µM and 2.98 µM | 3.42 µM and 3.51 µM | 3.39 µM and 2.6 µM | 3.03 | 1.55 µM and 2.75 µM | 2.53 µM and 2.74 µM | 2.06 µM and 3.26 µM | 3.21 | 2.06 µM and 1.86 µM | 3.12 µM and 2.78 µM | 1.87 | – | 1.32 | – | 0.0393 | – | 0.0225 | – | 0.0286 | 1.56
O=C(Nc1cccc([N+](=O)[O-])c1)c1cc2ccccc2cc1O | 5.33 µM | > 100 µM | 4.41 µM | 7.88 | 6.21 µM | 3.56 µM | 5.23 µM | 3.17 | 3.64 µM | > 30.7 µM | 1.96 | 2.61 | 0.422 | 2.47 | 1.36 | 1.14 | 0.881 | 0.772 | 1.47 | 3.09
Cc1nc2sc(C(=O)Nc3cccc(Cl)c3C)c(N)c2cc1C(C)O (configuration not stated) | > 41.6 µM | > 68.4 µM | 53.4 µM | > 100 | > 53.2 µM | 15.6 µM | > 51.6 µM | > 35.7 | 46.5 µM | 13.8 µM | 0.119 | 3.45 | 4.36 | 0.443 | 0.103 | 0.26 | 20.2 | 0.159 | 0.547 | 0.112
Cn1c(O)c(N=NC(N)=S)c2ccccc21 | > 100 µM | > 100 µM | > 100 µM | > 100 | > 100 µM | > 100 µM | > 100 µM | > 100 | > 100 µM | > 100 µM | 27.1 | 82.1 | 88 | 43.9 | 20.3 | 38.1 | 71.6 | 40.9 | > 100 | > 100
FC(F)(F)c1cc(NC2=NCCN=C(Nc3cc(C(F)(F)F)cc(C(F)(F)F)c3)SS2)cc(C(F)(F)F)c1 | 12.2 µM | 17 µM | 5.01 µM | 23.7 | 12.6 µM | 11.9 µM | – | 12.5 | 15 µM | 14.1 µM | 3.08 | 3.65 | 1.52 | 4.22 | 2.9 | 3.2 | – | 3.73 | 3.59 | 3.85
O=c1[nH]cnc2nc(-c3ccc(N(CCCl)CCCl)cc3)[nH]c12 | 6.5 µM | > 100 µM | > 100 µM | > 100 | > 100 µM | > 100 µM | – | > 100 | > 100 µM | > 100 µM | 1.57 | 20.1 | 17.8 | 2.85 | > 100 | 3.47 | – | 12.6 | 3.23 | > 100
